Assay results published in ChEMBL document CHEMBL4834425, “Spirombandakamine A3 and Cyclombandakamines A8 and A9, Polycyclic Naphthylisoquinoline Dimers, with Antiprotozoal Activity, from a Congolese Ancistrocladus Plant” (J Nat Prod, 2021).

Assays:
[1] = tested on: Trypanosoma brucei rhodesiense; test: Antitrypanosomal activity against bloodstream form of Trypanosoma brucei rhodesiense STIB900 assessed as inhibition of parasite growth incubated for 72 hrs by Alamar blue dye-based fluorometric analysis; assay type: functional, organism-based; conditions: STIB900, 72 h
Leishmania donovani = test: Antileishmanial activity against Leishmania donovani MHOM/ET/67/L82 amastigotes assessed as inhibition of parasite growth measured after 72 hrs by alamar blue dye based fluorometric analysis; assay type: functional, organism-based; conditions: MHOM/ET/67/L82, 72 h
Plasmodium falciparum = test: Antiplasmodial activity against Plasmodium falciparum NF54 erythrocytic stages assessed as inhibition of parasite growth after 48 hrs by liquid scintillation counting method; assay type: functional, organism-based; conditions: NF54, 48 h
L6 = test: Cytotoxicity against rat L6 cells measured after 72 hrs by alamar blue dye based fluorometric analysis; assay type: cell-based; conditions: L6, 72 h
[2] = Selectivity index, ratio of IC50 for cytotoxicity against rat L6 cells to IC50 for antiplasmodial activity against Plasmodium falciparum NF54; assay type: toxicity, cell-based; conditions: read-out: Ratio IC50
Trypanosoma cruzi = test: Antitrypanosomal activity against amastigote form of Trypanosoma cruzi Tulahuen C4 expressing LacZ infected in rat L6 cells assessed as inhibition of parasite growth incubated for 96 hrs by CPRG/Nonidet reagent based […] analysis; assay type: functional, organism-based; conditions: Tulahuen C4, L6, 96 h

SMILES	IC50 [1] [nM]	IC50 (Leishmania donovani) [µM]	IC50 (Plasmodium falciparum) [nM]	IC50 (L6) [µM]	selectivity ratio [2]	IC50 (Trypanosoma cruzi) [µM]
COc1ccc2c3c1C(=O)C[C@]1(C)Oc4c(cc(-c5c(O)cc(OC)c6c5C[C@H](C)N(C)[C@@H]6C)c5cc(C)cc(OC)c45)[C@]31Oc1cc(OC)c3c(c1-2)C[C@@H](C)N[C@H]3C	4080	27.9	152	19.3	127	35.6
COc1ccc2c3c1C(=O)C[C@]31c3cc(-c4c(O)cc(OC)c5c4C[C@@H](C)N[C@@H]5C)c4cc(C)cc(OC)c4c3O[C@]1(C)Oc1cc(OC)c3c(c1-2)C[C@@H](C)N(C)[C@@H]3C	292	> 100	71	19.3	272	17.3
COc1ccc2c3c1C(=O)C[C@]1(C)Oc4c(cc(-c5c(O)cc(OC)c6c5C[C@H](C)N(C)[C@@H]6C)c5cc(C)cc(OC)c45)[C@]31Oc1cc(OC)c3c(c1-2)C[C@@H](C)N[C@@H]3C	738	54.2	59	16.8	282	23.6
O=C(Cn1ccnc1[N+](=O)[O-])NCc1ccccc1 [BENZNIDAZOLE]						2.77
CCCCCCCCCCCCCCCCOP(=O)([O-])OCC[N+](C)(C)C [MILTEFOSINE]		0.39				
